Reference: ChEMBL document CHEMBL5260850, “The exploration of aza-quinolines as hematopoietic prostaglandin D synthase (H-PGDS) inhibitors with low brain exposure” (Bioorg Med Chem, 2020)
The source made the active and inactive calls. No cut-off for these calls is given here.

Columns and labels:
[1] = target: 5-hydroxytryptamine receptor 3A (Homo sapiens) (UniProt P46098); conditions: dose <= 10000.0 nM
Description: Inhibition of 5-HT3 receptor (unknown origin) upto 10000 nM

[2] = target: Kappa-type opioid receptor (Homo sapiens) (UniProt P41145); conditions: dose <= 10000.0 nM
Description: Inhibition of kappa opioid receptor (unknown origin) upto 10000 nM

[3] = target: Tyrosine-protein kinase Lck (Homo sapiens) (UniProt P06239); conditions: dose <= 10000.0 nM
Description: Inhibition of LCK (unknown origin) upto 10000 nM

[4] = target: GABA-A receptor; anion channel (Homo sapiens) (UniProt P14867+P47870+P18507+P28472+P48169+Q99928+Q9UN88+P34903+O00591+O14764+Q8N1C3+P18505+P78334+P47869+P31644+Q16445); conditions: dose <= 10000.0 nM
Description: Inhibition of GABAA receptor (unknown origin) upto 10000 nM

[5] = target: Cannabinoid receptor 1 (Homo sapiens) (UniProt P21554); conditions: dose <= 10000.0 nM
Description: Inhibition of CB1 receptor (unknown origin) upto 10000 nM

[6] = Toxicity in dog assessed as organ morphological changes upto 30 mg/kg/day, po QD for 4 days by microscopic analysis; assay type: organism-based, Canis lupus familiaris; conditions: in vivo, 96 h, time 4 day
[7] = Toxicity in Wistar Han rat assessed as morphological changes in kidney at 30 mg/kg/day, po administered QD for 7 days by microscopic analysis; assay type: organism-based; conditions: in vivo, 168 h, time 7 day
[8] = Toxicity in dog assessed as hemorrhage of zona fasciculata in adrenal gland at 75 mg/kg/day, po QD for 4 days by microscopic analysis; assay type: organism-based, Canis lupus familiaris; conditions: in vivo, 96 h, time 4 day
[9] = Toxicity in rat assessed as tolerance at 300 mg/kg, po administered as single dose; assay type: organism-based; conditions: in vivo
[10] = Toxicity in Wistar Han rat assessed as animal death at 100 mg/kg/day, po administered QD for 7 days; assay type: organism-based; conditions: in vivo, 168 h, time 7 day
[11] = Cmax in dog at 75 mg/kg/day, po QD for 4 days; assay type: ADME, organism-based, Canis lupus familiaris; set-up: dose 75 mg/kg/day, time 4 day, route po; conditions: in vivo
[12] = target: Prostaglandin-H2 D-isomerase (Homo sapiens, UniProt P41222); test: Inhibition of L-PGDS (unknown origin)
[13] = Clearance in mouse at 1 mg/kg, iv; assay type: ADME, organism-based; conditions: in vivo
[14] = target: Solute carrier organic anion transporter family member 1B1 (Homo sapiens, UniProt Q9Y6L6); test: Inhibition of OATP1B1 (unknown origin) upto 10000 nM; conditions: 10 µM
[15] = target: Mas-related G-protein coupled receptor member X2 (Homo sapiens) (UniProt Q96LB1); conditions: dose <= 10000.0 nM
Description: Inhibition of MRGPRX2 receptor (unknown origin) upto 10000 nM

[16] = Toxicity in Wistar Han rat assessed as seizure-like activity at 10 to 100 mg/kg/day, po QD for 7 days; assay type: organism-based; conditions: in vivo, 168 h, dose 10-100 mg/kg/day, time 7 day
[17] = target: Alpha-2C adrenergic receptor (Homo sapiens) (UniProt P18825); conditions: dose <= 10000.0 nM
Description: Inhibition of alpha2C adrenergic receptor (unknown origin) upto 10000 nM

[18] = Selectivity ratio of EC50 for inhibition of H-PGDS in rat RBL cells assessed as reduction in A23187-induced PGD2 production to EC50 for anti-inflammatory activity against po dosed C57BL/6J mouse assessed as reduction in compound 48/80-induced PGD2 release into peritoneal lavage fluid
[19] = Volume of distribution at steady state in mouse at 1 mg/kg, iv; assay type: ADME, organism-based; conditions: in vivo, read-out: Vdss
[20] = Toxicity in dog assessed as body weight loss at 75 mg/kg/day, po QD for 4 days; assay type: organism-based, Canis lupus familiaris; conditions: in vivo, 96 h, time 4 day
[21] = target: 5-hydroxytryptamine receptor 2C (Homo sapiens) (UniProt P28335); conditions: dose <= 10000.0 nM
Description: Inhibition of 5-HT2C receptor (unknown origin) upto 10000 nM

[22] = Toxicity in dog assessed as clinical pathological changes by measuring increase in hepatobiliary parameters at 75 mg/kg/day, po QD for 4 days; assay type: organism-based, Canis lupus familiaris; conditions: in vivo, 96 h, time 4 day
[23] = target: Hematopoietic prostaglandin D synthase (Homo sapiens, UniProt O60760); test: Binding affinity to human H-PGDS expressed in Escherichia coli BL21 DE3 cells assessed as equilibrium dissociation constant by measuring changes in intrinsic tryptophan fluorescence in presence of glutathione by fluorescence based analysis
[24] = AUC in dog at 30 mg/kg/day, po QD for 4 days; assay type: ADME, organism-based, Canis lupus familiaris; set-up: dose 30 mg/kg/day, time 4 day, route po; conditions: in vivo
Mus musculus [25] = species on record: Mus musculus; test: animal or person; conditions: C57BL/6J, Mast cell, po, 1.117 h
[26] = Volume of distribution at steady state in rat at 0.4 mg/kg, iv; assay type: ADME, organism-based; conditions: in vivo, read-out: Vdss
Mus musculus [27] = test: Anti-inflammatory activity against C57BL6/N mouse assessed as EC50 required for reduction in LPS-induced PGD2 level in skeletal muscle administered orally with compound and 1 hr later treated with LPS and measured after 30 mins by LC-MS/MS analysis; assay type: functional, organism-based, C57BL/6N
Albumin = Albumin (Homo sapiens, UniProt P02768); test: Protein binding in human serum albumin by HPLC analysis; assay type: ADME, cell-free; conditions: read-out: PB (converted)
[28] = Cmax in mdx mouse administered orally 10 mins prior to unilateral eccentric contraction and QD for 43 days thereafter; assay type: ADME; set-up: time 43 day, route po; conditions: in vivo, po
[29] = target: Aurora kinase B (Homo sapiens) (UniProt Q96GD4); conditions: dose <= 10000.0 nM
Description: Inhibition of Aurora B kinase (unknown origin) upto 10000 nM

[30] = Toxicity in Wistar Han rat assessed as cortical hypertrophy in adrenal gland at 100 mg/kg/day, po administered QD for 7 days by microscopic analysis; assay type: organism-based; conditions: in vivo, 168 h, time 7 day
[31] = Clearance in rat at 0.4 mg/kg, iv; assay type: ADME, organism-based; conditions: in vivo
[32] = Selectivity ratio of EC50 for inhibition of H-PGDS in rat RBL cells assessed as reduction in A23187-induced PGD2 production to EC50 for anti-inflammatory activity against po dosed C57BL6/N mouse assessed as reduction in LPS-induced PGD2 level in plasma
Mus musculus [33] = test: Anti-inflammatory activity against C57BL6/N mouse assessed as reduction in LPS-induced PGD2 level in skeletal muscle administered orally with compound and 1 hr later treated with LPS and measured after 30 mins by LC-MS/MS analysis; assay type: functional; conditions: route po, time 1.5 hrs
[34] = Volume of distribution at steady state in dog at 0.5 mg/kg, iv; assay type: ADME, organism-based, Canis lupus familiaris; conditions: in vivo, read-out: Vdss
[35] = target: 3',5'-cyclic-AMP phosphodiesterase 4B (Homo sapiens) (UniProt Q07343); conditions: dose <= 10000.0 nM
Description: Inhibition of PDE4B (unknown origin) upto 10000 nM

[36] = target: 5-hydroxytryptamine receptor 2A (Homo sapiens) (UniProt P28223); conditions: dose <= 10000.0 nM
Description: Inhibition of 5-HT2A receptor (unknown origin) upto 10000 nM

[37] = Ratio of drug level in muscle to plasma in C57BL/6N mouse administered orally for 10 mins prior to unilateral eccentric contraction and QD for 16 days thereafter; assay type: toxicity, cell-free, Muscle tissue/plasma; conditions: route po, time 16 day
Mus musculus [38] = test: Anti-inflammatory activity against C57BL/6N mouse assessed as inhibition of muscle function loss by measuring functional recovery of injured limb muscles administered orally for 10 mins prior to unilateral eccentric contraction and QD for 16 days thereafter; conditions: 384 h, route po, time 16 day
[39] = AUC in Wistar Han rat at 100 mg/kg/day, po QD for 7 days; assay type: ADME, organism-based; set-up: time 7 day, dose 100 mg/kg/day, route po; conditions: in vivo
[40] = target: D(1A) dopamine receptor (Homo sapiens) (UniProt P21728); conditions: dose <= 10000.0 nM
Chain of D(1A) dopamine receptor (Homo sapiens) (P21728 whole entry): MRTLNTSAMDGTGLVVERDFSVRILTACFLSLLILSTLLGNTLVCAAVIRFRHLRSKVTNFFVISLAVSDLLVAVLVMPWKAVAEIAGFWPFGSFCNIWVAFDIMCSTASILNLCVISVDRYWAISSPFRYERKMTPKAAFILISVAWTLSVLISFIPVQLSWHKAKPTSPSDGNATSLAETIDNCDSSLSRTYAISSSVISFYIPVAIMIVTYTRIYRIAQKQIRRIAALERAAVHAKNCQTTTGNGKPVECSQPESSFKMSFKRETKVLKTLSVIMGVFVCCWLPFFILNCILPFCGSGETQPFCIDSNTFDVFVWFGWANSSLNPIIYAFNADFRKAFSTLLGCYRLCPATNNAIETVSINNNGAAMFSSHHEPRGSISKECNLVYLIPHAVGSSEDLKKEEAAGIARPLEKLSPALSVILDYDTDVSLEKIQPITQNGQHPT
Description: Inhibition of dopamine D1 receptor (unknown origin) upto 10000 nM

Chain of 5-hydroxytryptamine receptor 2C (Homo sapiens) (P28335 whole entry): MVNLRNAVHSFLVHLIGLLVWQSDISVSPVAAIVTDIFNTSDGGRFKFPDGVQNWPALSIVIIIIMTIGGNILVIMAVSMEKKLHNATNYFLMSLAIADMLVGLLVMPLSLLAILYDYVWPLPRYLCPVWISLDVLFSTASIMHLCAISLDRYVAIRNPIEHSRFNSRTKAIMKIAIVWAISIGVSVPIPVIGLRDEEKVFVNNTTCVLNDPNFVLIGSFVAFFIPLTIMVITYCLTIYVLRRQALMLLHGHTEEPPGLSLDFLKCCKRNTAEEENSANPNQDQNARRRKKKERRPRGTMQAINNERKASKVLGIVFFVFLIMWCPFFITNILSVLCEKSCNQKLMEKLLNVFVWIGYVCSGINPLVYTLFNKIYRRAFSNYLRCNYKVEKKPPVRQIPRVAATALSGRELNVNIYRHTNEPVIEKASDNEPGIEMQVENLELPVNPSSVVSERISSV
Chain of Prostaglandin-H2 D-isomerase (P41222 whole entry): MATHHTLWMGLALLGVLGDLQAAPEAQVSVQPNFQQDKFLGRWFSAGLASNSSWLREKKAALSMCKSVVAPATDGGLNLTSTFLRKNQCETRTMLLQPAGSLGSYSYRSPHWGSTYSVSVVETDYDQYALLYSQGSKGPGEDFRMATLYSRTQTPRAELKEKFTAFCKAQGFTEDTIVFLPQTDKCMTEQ
Chain of Tyrosine-protein kinase Lck (Homo sapiens) (P06239 2-509 limits assumed): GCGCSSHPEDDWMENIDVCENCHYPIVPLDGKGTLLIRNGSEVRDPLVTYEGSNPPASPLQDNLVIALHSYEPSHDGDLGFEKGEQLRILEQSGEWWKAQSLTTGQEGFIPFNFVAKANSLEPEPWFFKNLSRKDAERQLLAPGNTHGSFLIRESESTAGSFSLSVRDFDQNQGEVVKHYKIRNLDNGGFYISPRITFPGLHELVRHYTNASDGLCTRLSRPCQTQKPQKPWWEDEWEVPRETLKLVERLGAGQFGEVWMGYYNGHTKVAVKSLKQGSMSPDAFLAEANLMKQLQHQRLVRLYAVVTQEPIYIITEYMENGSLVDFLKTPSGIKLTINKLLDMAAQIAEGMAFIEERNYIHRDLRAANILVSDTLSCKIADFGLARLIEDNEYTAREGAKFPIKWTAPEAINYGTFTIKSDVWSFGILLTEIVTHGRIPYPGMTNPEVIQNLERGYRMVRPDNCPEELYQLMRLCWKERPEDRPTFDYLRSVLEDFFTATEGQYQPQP
Chain of Albumin (P02768 whole entry): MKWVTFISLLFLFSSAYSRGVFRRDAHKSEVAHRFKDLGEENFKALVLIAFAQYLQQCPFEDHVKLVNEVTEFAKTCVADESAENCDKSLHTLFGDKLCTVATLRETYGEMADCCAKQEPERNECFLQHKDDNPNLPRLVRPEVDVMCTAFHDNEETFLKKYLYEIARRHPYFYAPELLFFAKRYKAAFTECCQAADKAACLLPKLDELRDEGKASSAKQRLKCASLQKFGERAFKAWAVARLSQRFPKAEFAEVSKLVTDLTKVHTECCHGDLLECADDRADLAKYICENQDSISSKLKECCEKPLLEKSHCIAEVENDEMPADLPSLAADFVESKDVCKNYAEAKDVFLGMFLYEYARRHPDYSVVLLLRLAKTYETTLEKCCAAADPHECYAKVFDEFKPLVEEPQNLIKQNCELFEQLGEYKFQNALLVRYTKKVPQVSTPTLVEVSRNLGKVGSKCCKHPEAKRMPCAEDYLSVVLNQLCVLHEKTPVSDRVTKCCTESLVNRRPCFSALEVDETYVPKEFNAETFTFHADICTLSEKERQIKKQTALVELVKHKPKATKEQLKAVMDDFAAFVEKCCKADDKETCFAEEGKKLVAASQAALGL
Chain of Cannabinoid receptor 1 (Homo sapiens) (P21554 whole entry): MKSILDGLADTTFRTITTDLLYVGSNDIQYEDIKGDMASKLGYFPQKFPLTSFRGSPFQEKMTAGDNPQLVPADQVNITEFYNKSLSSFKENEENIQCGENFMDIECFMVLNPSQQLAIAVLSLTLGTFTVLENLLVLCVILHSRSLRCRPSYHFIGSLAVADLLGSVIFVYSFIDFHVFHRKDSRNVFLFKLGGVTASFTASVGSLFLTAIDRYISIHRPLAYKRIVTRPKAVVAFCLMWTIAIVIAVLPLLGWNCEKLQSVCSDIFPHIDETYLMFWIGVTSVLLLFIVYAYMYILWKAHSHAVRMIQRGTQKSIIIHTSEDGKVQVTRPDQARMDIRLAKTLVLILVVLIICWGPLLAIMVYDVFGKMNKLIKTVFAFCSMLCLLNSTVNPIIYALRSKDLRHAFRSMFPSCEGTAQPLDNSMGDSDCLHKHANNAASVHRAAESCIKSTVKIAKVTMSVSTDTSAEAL
Chain of 5-hydroxytryptamine receptor 3A (Homo sapiens) (P46098 whole entry): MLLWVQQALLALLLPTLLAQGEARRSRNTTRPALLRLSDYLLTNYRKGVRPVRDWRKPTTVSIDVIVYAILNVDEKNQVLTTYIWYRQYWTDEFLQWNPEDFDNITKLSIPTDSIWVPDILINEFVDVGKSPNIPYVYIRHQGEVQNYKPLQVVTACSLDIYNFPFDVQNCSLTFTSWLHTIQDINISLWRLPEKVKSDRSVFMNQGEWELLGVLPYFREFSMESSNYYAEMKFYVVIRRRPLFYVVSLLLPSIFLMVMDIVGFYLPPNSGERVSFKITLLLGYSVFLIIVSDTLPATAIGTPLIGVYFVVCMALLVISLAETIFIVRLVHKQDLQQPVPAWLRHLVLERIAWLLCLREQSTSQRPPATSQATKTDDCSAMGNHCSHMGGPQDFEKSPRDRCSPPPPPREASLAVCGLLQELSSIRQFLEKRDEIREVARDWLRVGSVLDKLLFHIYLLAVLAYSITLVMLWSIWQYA
Chain of Aurora kinase B (Homo sapiens) (Q96GD4 whole entry): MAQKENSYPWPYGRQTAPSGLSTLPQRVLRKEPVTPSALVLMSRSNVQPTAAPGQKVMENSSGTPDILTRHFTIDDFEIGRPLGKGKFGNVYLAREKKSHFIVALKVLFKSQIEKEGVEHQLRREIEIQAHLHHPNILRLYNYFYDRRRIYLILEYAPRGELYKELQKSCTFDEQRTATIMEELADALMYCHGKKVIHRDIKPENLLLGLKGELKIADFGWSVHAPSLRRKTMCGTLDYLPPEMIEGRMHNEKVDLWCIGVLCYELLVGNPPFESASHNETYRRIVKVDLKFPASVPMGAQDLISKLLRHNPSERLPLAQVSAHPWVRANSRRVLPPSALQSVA
Chain of Kappa-type opioid receptor (Homo sapiens) (P41145 whole entry): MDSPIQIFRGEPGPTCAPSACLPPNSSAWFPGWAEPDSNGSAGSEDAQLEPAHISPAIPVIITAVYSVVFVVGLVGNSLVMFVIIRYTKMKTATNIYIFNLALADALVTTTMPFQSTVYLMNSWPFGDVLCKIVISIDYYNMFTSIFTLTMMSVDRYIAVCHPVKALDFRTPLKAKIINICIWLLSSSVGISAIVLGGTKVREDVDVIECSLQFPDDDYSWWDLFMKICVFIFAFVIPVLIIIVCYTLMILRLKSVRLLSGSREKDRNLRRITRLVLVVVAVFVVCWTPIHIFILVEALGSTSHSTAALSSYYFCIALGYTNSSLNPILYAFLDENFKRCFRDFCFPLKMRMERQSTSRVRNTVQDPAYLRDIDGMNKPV
Chain of Alpha-2C adrenergic receptor (Homo sapiens) (P18825 whole entry): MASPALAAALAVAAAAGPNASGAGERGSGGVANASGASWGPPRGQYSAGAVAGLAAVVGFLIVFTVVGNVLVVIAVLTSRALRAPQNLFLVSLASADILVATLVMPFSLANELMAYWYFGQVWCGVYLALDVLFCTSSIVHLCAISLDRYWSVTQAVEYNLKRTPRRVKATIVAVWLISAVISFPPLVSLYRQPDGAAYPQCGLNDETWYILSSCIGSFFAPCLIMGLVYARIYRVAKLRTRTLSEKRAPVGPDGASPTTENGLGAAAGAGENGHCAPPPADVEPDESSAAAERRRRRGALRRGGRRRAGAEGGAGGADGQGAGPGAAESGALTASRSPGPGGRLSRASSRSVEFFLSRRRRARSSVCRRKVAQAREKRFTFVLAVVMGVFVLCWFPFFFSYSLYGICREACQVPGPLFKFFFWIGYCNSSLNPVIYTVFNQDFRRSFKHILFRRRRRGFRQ
Chain of 5-hydroxytryptamine receptor 2A (Homo sapiens) (P28223 whole entry): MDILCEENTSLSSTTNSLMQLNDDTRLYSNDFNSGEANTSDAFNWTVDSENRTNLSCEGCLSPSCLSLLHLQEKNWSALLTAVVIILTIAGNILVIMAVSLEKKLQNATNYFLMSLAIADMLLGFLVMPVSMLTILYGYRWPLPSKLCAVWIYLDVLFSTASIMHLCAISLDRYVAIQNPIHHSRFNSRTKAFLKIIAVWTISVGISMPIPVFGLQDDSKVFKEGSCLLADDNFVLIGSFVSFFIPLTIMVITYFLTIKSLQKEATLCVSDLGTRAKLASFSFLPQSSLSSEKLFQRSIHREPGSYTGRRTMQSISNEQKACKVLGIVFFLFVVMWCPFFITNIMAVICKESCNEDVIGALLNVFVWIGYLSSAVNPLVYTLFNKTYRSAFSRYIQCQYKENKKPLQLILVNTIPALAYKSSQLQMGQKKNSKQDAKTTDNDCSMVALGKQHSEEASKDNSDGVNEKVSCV

## CC(C)(O)[C@H]1CC[C@H](NC(=O)c2cnc3nc(C4CC4)ccc3c2)CC1
[1]
  inhibition: inactive
[2]
  inhibition: inactive
[3]
  inhibition: inactive
[4]
  inhibition: inactive
[5]
  inhibition: inactive
[6]
  Activity: Non-Toxic
[7]
  Activity: Non-Toxic
[8]
  Activity: Toxic
[9]
  Activity: Non-Toxic
[10]
  Activity: Toxic
[11]
  Cmax: 210 µg/mL
[12]
  IC50: > 10000 nM
[13]
  clearance: 9 mL/min/kg
[14]
  inhibition (INH): Not Active
[15]
  inhibition: inactive
[16]
  Activity: Non-Toxic
[17]
  inhibition: inactive
[18]
  Ratio EC50: 10
[19]
  Vd: 1.6 L/kg
[20]
  Activity: Toxic
[21]
  inhibition: inactive
[22]
  Activity: Toxic
[23]
  Kd: 0.24 nM
[24]
  AUC at 96 h: 430 µg·h/mL
Mus musculus [25]
  ED50: 0.009 mg/kg
[26]
  Vd: 1.6 L/kg
Mus musculus [27]
  EC50: 1.4 ng/g
Albumin
  fraction unbound: 0.2
[28]
  Cmax: 0.26 µg/mL
[29]
  inhibition: inactive
[30]
  Activity: Toxic
[31]
  clearance: 4.5 mL/min/kg
[32]
  Ratio EC50: 10
Mus musculus [33]
  ED50: 0.0138 mg/kg
[34]
  Vd: 1 L/kg
[35]
  inhibition: inactive
[36]
  inhibition: inactive
[37]
  Kp at 384 h: 0.56
Mus musculus [38]
  ED50: 3 mg/kg
[39]
  AUC at 168 h: 820 µg·h/mL
[40]
  inhibition: inactive
